Assay results reported in ChEMBL document CHEMBL3612012, “Identification of orally-bioavailable antagonists of the TRPV4 ion-channel” (Bioorg Med Chem Lett, 2015).
Converted amounts (≈) assume the structure as drawn.

How the values were obtained:
[1] = biological target: 5-hydroxytryptamine receptor 3A (Homo sapiens) (UniProt P46098); assay: Binding affinity to human 5-HT3 receptor assessed as inhibition of control specific binding at 10 uM
[2] = Solubility of the compound at pH 7.4; format: physicochemical; conditions: buffer
[3] = biological target: 5-hydroxytryptamine receptor 6 (Homo sapiens) (UniProt P50406); assay: Binding affinity to human 5-HT6 receptor assessed as inhibition of control specific binding at 10 uM
Homo sapiens [4] = organism: Homo sapiens; assay: Binding affinity to SST receptor (unknown origin) assessed as inhibition of control specific binding at 10 uM
Homo sapiens [5] = organism: Homo sapiens; assay: Binding affinity to SK+ calcium channel (unknown origin) assessed as inhibition of control specific binding at 10 uM
[6] = Clearance in Wistar rat at 1.40 mg/kg, iv; format: ADME, organism-based; conditions: in vivo, 1.4 mg/kg
[7] = Bioavailability in Wistar rat at 32.50 mg/kg, ip; format: ADME, organism-based; conditions: in vivo, 32.5 mg/kg
[8] = biological target: Transient receptor potential cation channel subfamily V member 3 (Homo sapiens, UniProt Q8NET8); assay: Antagonist activity at human TRPV3 receptor expressed in HEK293 cells assessed as inhibition of capsaicin-stimulated calcium flux after 10 mins; format: cell-based
Sequence of Transient receptor potential cation channel subfamily V member 3 (Q8NET8 whole entry): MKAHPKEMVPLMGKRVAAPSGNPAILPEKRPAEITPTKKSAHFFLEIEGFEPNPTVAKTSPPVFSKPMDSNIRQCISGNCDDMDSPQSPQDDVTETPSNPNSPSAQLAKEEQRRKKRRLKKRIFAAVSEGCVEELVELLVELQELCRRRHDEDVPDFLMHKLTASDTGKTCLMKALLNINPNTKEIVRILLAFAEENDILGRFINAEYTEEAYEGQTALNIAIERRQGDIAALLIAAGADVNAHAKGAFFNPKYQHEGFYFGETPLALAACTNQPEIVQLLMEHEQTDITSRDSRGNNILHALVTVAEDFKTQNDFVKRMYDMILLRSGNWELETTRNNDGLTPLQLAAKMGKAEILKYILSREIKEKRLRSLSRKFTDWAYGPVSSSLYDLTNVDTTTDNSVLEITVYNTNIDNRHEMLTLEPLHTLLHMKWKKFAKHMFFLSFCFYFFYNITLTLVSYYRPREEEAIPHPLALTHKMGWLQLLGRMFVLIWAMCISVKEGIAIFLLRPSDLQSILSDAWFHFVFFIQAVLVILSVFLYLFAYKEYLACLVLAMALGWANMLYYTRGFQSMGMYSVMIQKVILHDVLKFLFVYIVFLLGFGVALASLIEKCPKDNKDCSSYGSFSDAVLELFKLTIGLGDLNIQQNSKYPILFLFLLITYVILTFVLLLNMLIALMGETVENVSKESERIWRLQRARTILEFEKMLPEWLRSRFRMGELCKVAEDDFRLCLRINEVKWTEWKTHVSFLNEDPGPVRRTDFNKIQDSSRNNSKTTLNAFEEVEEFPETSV

[9] = biological target: Sodium-dependent noradrenaline transporter (Homo sapiens) (UniProt P23975); assay: Binding affinity to human NE transporter assessed as inhibition of control specific binding at 10 uM
[10] = biological target: Transient receptor potential cation channel subfamily M member 8 (Homo sapiens, UniProt Q7Z2W7); assay: Antagonist activity at human TRPM8 receptor expressed in HEK293 cells assessed as inhibition of menthol-stimulated calcium flux after 10 mins; format: cell-based
Sequence of Transient receptor potential cation channel subfamily M member 8 (Q7Z2W7 whole entry): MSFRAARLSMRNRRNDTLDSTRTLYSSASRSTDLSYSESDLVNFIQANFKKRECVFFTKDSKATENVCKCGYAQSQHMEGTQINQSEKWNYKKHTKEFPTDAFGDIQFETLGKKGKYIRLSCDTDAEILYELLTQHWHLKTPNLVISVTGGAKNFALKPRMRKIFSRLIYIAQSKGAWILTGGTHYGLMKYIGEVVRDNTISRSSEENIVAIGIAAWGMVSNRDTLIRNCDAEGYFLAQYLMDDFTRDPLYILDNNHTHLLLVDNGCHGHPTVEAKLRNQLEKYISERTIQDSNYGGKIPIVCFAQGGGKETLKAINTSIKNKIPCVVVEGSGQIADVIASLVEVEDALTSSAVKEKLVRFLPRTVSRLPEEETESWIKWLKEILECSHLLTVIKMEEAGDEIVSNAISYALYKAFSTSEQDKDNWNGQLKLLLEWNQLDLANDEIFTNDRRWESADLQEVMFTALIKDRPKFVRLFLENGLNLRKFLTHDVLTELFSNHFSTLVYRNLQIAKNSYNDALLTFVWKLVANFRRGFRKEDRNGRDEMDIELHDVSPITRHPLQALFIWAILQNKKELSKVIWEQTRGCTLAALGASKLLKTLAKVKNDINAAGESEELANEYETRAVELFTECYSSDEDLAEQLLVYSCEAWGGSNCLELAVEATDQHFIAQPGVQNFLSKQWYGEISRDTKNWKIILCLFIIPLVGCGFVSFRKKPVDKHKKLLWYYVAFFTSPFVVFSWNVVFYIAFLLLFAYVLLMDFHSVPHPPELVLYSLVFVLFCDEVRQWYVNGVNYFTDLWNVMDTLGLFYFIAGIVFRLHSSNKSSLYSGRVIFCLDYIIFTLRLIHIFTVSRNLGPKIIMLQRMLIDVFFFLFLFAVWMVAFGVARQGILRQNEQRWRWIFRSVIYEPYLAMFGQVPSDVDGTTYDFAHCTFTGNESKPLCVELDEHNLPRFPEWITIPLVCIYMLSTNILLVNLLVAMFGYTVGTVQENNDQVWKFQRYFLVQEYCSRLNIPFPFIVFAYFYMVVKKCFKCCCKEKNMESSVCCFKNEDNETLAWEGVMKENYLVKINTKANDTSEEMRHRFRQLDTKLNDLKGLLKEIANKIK

[11] = Plasma protein binding in human; format: ADME, cell-free; conditions: read-out: PPB (converted)
[12] = biological target: Histamine H2 receptor (Homo sapiens) (UniProt P25021); assay: Binding affinity to human H2 receptor assessed as inhibition of control specific binding at 10 uM
[13] = biological target: Sodium-dependent serotonin transporter (Homo sapiens) (UniProt P31645); assay: Binding affinity to human 5-HT transporter assessed as inhibition of control specific binding at 10 uM
Sequence of Sodium-dependent serotonin transporter (Homo sapiens) (P31645 whole entry, looked up): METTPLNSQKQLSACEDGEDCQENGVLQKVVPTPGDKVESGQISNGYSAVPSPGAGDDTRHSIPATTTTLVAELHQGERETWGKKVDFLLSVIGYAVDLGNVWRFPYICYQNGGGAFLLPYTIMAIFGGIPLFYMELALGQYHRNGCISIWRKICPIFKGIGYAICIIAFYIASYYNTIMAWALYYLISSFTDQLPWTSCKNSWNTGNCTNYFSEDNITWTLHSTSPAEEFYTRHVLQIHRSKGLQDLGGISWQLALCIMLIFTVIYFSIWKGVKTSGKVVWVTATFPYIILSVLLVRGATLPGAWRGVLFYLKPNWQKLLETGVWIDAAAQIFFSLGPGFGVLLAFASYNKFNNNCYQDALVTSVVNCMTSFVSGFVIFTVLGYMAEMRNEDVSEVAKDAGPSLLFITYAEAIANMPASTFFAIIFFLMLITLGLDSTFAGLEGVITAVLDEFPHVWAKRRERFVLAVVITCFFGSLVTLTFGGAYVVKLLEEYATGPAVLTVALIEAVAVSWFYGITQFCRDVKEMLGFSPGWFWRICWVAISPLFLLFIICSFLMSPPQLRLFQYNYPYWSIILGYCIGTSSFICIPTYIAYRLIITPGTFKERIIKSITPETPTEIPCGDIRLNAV

[14] = biological target: Nociceptin receptor (Homo sapiens) (UniProt P41146); assay: Binding affinity to human ORL1 receptor assessed as inhibition of control specific binding at 10 uM
[15] = biological target: Substance-K receptor (Homo sapiens) (UniProt P21452); assay: Binding affinity to human NK2 receptor assessed as inhibition of control specific binding at 10 uM
[16] = biological target: C-X-C chemokine receptor type 2 (Homo sapiens) (UniProt P25025); assay: Binding affinity to human CXCR2 receptor assessed as inhibition of control specific binding at 10 uM
[17] = Half life in Wistar rat at 1.40 mg/kg, iv; format: ADME, organism-based; conditions: in vivo, 1.4 mg/kg
Homo sapiens [18] = organism: Homo sapiens; assay: Binding affinity to sodium channel site-2 (unknown origin) assessed as inhibition of control specific binding at 10 uM
[19] = biological target: Cannabinoid receptor 1 (Homo sapiens) (UniProt P21554); assay: Binding affinity to human CB1 receptor assessed as inhibition of control specific binding at 10 uM
[20] = biological target: 5-hydroxytryptamine receptor 1B (Homo sapiens) (UniProt P28222); assay: Binding affinity to human 5-HT1B receptor assessed as inhibition of control specific binding at 10 uM
Homo sapiens [21] = organism: Homo sapiens; assay: Binding affinity to central benzodiazepine receptor (unknown origin) assessed as inhibition of control specific binding at 10 uM
[22] = biological target: Vasopressin V1a receptor (Homo sapiens) (UniProt P37288); assay: Binding affinity to human V1a receptor assessed as inhibition of control specific binding at 10 uM
[23] = biological target: Neuromedin-K receptor (Homo sapiens) (UniProt P29371); assay: Binding affinity to human NK3 receptor assessed as inhibition of control specific binding at 10 uM
[24] = biological target: Muscarinic acetylcholine receptor M3 (Homo sapiens) (UniProt P20309); assay: Binding affinity to human M3 receptor assessed as inhibition of control specific binding at 10 uM
[25] = biological target: Transient receptor potential cation channel subfamily V member 4 (Rattus norvegicus, UniProt Q9ERZ8); assay: Antagonist activity at rat TRPV4 expressed in HEK293 cells assessed as inhibition of 20% hypotonic solution-induced Ca2+ influx; format: cell-based
Sequence of Transient receptor potential cation channel subfamily V member 4 (Rattus norvegicus, UniProt Q9ERZ8) (Q9ERZ8 whole entry): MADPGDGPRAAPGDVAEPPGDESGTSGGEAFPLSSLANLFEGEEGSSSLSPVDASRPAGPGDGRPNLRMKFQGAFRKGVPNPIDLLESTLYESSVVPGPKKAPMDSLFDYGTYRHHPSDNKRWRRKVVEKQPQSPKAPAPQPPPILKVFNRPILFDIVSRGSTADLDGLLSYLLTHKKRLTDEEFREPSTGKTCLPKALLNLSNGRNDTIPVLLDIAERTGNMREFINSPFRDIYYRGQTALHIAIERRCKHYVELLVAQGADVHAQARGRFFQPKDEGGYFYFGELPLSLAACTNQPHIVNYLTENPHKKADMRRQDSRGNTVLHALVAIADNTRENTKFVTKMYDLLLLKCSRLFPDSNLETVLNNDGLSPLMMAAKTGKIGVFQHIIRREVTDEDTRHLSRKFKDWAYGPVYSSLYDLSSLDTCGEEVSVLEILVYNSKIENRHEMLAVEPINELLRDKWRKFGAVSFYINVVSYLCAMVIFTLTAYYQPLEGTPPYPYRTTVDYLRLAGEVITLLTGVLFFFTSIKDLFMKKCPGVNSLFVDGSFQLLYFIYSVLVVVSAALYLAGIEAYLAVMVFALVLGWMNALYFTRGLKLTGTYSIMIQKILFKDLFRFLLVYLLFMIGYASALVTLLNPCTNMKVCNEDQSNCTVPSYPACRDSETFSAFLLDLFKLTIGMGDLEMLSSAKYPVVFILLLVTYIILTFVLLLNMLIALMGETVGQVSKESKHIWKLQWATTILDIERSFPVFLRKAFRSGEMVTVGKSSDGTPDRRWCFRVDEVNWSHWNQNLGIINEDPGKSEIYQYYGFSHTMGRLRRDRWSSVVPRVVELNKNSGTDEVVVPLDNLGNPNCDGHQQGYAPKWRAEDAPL

[26] = biological target: potassium channel (voltage-gated potassium channel family) (Homo sapiens, UniProt O43525+O43526+O95259+P16389+P17658+P22001+P22459+P22460+P48547+P51787+P56696+Q03721+Q09470+Q12809+Q14003+Q14721+Q16322+Q6PIU1+Q8NCM2+Q8TAE7+Q8TDN1+Q8TDN2+Q92953+Q96KK3+Q96L42+Q96PR1+Q96RP8+Q9BQ31+Q9H252+Q9H3M0+Q9NR82+Q9NS40+Q9NSA2+Q9NZV8+Q9UIX4+Q9UJ96+Q9UK17+Q9ULD8+Q9ULS6+Q9UQ05); assay: Binding affinity to potassium channel (unknown origin) assessed as inhibition of control specific binding at 10 uM; format: protein assay
[27] = biological target: Adenosine receptor A1 (Homo sapiens) (UniProt P30542); assay: Binding affinity to human adenosine A1 receptor assessed as inhibition of control specific binding at 10 uM
[28] = biological target: Type-1 angiotensin II receptor (Homo sapiens) (UniProt P30556); assay: Binding affinity to human AT1 receptor assessed as inhibition of control specific binding at 10 uM
Sequence of Type-1 angiotensin II receptor (Homo sapiens) (P30556 whole entry): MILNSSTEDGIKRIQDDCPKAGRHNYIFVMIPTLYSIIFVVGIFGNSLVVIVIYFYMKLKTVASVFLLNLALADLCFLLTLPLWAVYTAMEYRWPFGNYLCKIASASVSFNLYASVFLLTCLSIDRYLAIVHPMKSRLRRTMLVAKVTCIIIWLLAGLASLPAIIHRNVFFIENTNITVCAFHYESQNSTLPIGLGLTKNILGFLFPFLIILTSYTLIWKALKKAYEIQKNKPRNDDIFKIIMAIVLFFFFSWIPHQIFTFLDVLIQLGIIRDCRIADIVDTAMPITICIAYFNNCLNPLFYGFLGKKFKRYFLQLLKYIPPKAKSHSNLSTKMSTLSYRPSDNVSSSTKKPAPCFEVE

[29] = biological target: 5-hydroxytryptamine receptor 1A (Homo sapiens) (UniProt P08908); assay: Binding affinity to human 5-HT1A receptor assessed as inhibition of control specific binding at 10 uM
Sequence of 5-hydroxytryptamine receptor 1A (Homo sapiens) (P08908 whole entry): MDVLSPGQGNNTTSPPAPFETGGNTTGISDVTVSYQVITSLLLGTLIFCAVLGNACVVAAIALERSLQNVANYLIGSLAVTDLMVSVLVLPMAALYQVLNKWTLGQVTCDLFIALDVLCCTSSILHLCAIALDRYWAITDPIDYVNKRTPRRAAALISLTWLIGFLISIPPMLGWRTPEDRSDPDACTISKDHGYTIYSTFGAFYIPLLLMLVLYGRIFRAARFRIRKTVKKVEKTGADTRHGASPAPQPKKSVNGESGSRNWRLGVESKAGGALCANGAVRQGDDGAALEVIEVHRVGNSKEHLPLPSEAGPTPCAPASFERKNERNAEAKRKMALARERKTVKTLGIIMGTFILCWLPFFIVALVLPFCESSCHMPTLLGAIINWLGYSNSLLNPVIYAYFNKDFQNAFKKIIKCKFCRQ

[30] = biological target: Beta-1 adrenergic receptor (Homo sapiens) (UniProt P08588); assay: Binding affinity to human beta1 adrenergic receptor assessed as inhibition of control specific binding at 10 uM
Sequence of Beta-1 adrenergic receptor (Homo sapiens) (P08588 whole entry, looked up): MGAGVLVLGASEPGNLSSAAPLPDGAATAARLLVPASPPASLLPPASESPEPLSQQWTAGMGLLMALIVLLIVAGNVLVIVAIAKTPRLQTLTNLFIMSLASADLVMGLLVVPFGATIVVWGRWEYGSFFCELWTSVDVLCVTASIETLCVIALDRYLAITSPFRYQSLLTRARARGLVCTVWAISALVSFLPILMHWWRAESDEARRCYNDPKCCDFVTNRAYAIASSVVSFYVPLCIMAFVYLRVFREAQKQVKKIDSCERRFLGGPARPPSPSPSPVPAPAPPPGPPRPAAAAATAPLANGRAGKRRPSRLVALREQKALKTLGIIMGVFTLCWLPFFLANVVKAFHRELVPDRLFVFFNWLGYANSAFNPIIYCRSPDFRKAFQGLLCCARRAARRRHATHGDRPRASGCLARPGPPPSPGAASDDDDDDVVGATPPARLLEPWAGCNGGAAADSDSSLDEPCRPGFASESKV

[31] = biological target: Thromboxane A2 receptor (Homo sapiens) (UniProt P21731); assay: Binding affinity to human TP receptor assessed as inhibition of control specific binding at 10 uM
[32] = biological target: Transient receptor potential cation channel subfamily V member 4 (Mus musculus, UniProt Q9EPK8); assay: Antagonist activity at mouse TRPV4 receptor expressed in HEK293 cells assessed as inhibition of EC80 of 4alpha-PDD-stimulated calcium flux after 10 mins; format: cell-based
[33] = biological target: D(2) dopamine receptor (Homo sapiens) (UniProt P14416); assay: Binding affinity to human D2S receptor assessed as inhibition of control specific binding at 10 uM
[34] = AUC (infinity) in Wistar rat at 29.73 mg/kg, po; format: ADME, organism-based; set-up: dose 29.73 mg/kg, time infinity, route oral; conditions: in vivo
[35] = biological target: Galanin receptor type 2 (Homo sapiens) (UniProt O43603); assay: Binding affinity to human GAL2 receptor assessed as inhibition of control specific binding at 10 uM
Sequence of Galanin receptor type 2 (Homo sapiens) (O43603 whole entry): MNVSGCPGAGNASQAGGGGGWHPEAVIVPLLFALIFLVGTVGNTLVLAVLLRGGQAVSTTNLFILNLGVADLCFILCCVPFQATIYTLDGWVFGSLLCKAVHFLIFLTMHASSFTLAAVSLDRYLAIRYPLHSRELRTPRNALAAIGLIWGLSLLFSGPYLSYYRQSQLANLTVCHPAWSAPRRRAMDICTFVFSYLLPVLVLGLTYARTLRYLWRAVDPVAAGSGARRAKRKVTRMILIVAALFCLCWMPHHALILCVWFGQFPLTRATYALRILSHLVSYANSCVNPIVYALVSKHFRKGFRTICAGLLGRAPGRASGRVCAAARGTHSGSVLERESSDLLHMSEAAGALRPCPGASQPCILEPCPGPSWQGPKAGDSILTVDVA

[36] = Plasma protein binding in rat; format: ADME, cell-free; conditions: read-out: PPB (converted)
[37] = Oral bioavailability in Wistar rat at 29.73 mg/kg; format: ADME, organism-based; conditions: in vivo

Compound: CC(C)N1CCN(S(=O)(=O)c2ccc(NC(=O)c3ccc(C(F)(F)F)cc3[N+](=O)[O-])cc2)CC1
- inhibition [1]: -3%
- solubility [2]: 45.5 µM (≈ 22.8 µg/mL)
- inhibition [3]: -2%
- inhibition (Homo sapiens [4]): -1%
- inhibition (Homo sapiens [5]): -4%
- clearance [6]: 23.7 mL/min/kg
- bioavailability [7]: 75%
- IC50 [8]: > 30000 nM
- inhibition [9]: 4%
- IC50 [10]: 30000 nM
- fraction unbound [11]: 0.01
- inhibition [12]: -4%
- inhibition [13]: 6%
- inhibition [14]: -2%
- inhibition [15]: 15%
- inhibition [16]: -4%
- half-life [17]: 42.6 min
- inhibition (Homo sapiens [18]): 17%
- inhibition [19]: 3%
- inhibition [20]: -2%
- inhibition (Homo sapiens [21]): 9%
- inhibition [22]: 1%
- inhibition [23]: 2%
- inhibition [24]: 21%
- IC50 [25]: 2100 nM
- inhibition at 10 µM [26]: -25%
- inhibition [27]: 2%
- inhibition [28]: -6%
- inhibition [29]: -4%
- inhibition [30]: 4%
- inhibition [31]: -6%
- IC50 [32]: 320 nM
- inhibition [33]: 2%
- AUC(0-inf) [34]: 10100 ng·h/mL
- inhibition [35]: 4%
- fraction unbound [36]: 0.01
- bioavailability [37]: 46.8%
